Data reported in patent publication US8217035B2, “Pyrimidine derivatives used as PI-3-kinase inhibitors” (Novartis AG, priority 2006, dated 2012).
Where two headings read alike, the source gives them in different places.

Columns and labels:
[1] = tested on: pSer473 Akt in A2780 cells; test: pSer473 Akt assay to monitor PI3K pathway in A2780 cells (Biological Method 2, MSD); format: cell-based; conditions: Homo sapiens, inhibition of Akt phosphorylation
Procedure: In this method, an assay for measuring the PI3K-mediated pSer473-Akt status after treatment with representative inhibitor compounds of the invention is described.
A2780 cells were cultured in DMEM supplemented with 10% FBS. L-glutamine, sodium pyruvate, and antibiotics. Cells were plated in the same medium at a density of 15,000 cells per well into 96 well tissue culture plates, with outside wells vacant, and allowed to adhere overnight.
Test compounds supplied in DMSO were diluted further into DMSO at 500 times the desired final concentrations before dilution into culture media to 2 times the final concentrations. Equal volumes of 2× compounds were added to the cells in 96 well plates and incubated at 37° C. for one hour. The media and compounds were then removed, the plates chilled and cells lysed in a lysis buffer (150 mM NaCl, 20 mM Tris pH 7.5, 1 mM EDTA, 1 mM EGTA, 1% Triton X-100) supplemented with phosphatase and protease inhibitors. After thorough mixing, lysates were transferred to both pSer473Akt and total Akt assay plates from Meso Scale Discovery (MSD), and incubated overnight with shaking at 4° C.
The assays were read on a SECTOR Imager 6000 instrument (Meso Scale Discovery). Ratios of the signal from pSer473Akt and total Akt assays were used to correct for any variability and the percent inhibition of pSer473Akt from the total signal seen in cells treated with compound versus DMSO alone was calculated and used to determine EC50 values for each compound.

[2] = tested on: A2780 ovarian cancer cells; test: Cellular proliferation in A2780 cells, Cell Titer Glo (Biological Method 4); format: cell-based; conditions: Homo sapiens
Procedure, shortened: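 A2780 cells seeded at 1,000/well in DMEM with 10% FBS, at least 2 h before compound, then exposed 72 h at 37 °C, 5% CO2. Viable cells measured by Cell Titer Glo luminescence; EC50 calculated from duplicate conditions.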

[3] = target: PI3 kinase alpha (Homo sapiens, UniProt P42336); test: PI3K ATP depletion assay (Biological Method 1, Assay 3; KinaseGlo luminescence); format: biochemical; conditions: ATP depletion assay, read-out: PI3 Kinase Alpha, IC50
Chain of PI3 kinase alpha (P42336 whole entry): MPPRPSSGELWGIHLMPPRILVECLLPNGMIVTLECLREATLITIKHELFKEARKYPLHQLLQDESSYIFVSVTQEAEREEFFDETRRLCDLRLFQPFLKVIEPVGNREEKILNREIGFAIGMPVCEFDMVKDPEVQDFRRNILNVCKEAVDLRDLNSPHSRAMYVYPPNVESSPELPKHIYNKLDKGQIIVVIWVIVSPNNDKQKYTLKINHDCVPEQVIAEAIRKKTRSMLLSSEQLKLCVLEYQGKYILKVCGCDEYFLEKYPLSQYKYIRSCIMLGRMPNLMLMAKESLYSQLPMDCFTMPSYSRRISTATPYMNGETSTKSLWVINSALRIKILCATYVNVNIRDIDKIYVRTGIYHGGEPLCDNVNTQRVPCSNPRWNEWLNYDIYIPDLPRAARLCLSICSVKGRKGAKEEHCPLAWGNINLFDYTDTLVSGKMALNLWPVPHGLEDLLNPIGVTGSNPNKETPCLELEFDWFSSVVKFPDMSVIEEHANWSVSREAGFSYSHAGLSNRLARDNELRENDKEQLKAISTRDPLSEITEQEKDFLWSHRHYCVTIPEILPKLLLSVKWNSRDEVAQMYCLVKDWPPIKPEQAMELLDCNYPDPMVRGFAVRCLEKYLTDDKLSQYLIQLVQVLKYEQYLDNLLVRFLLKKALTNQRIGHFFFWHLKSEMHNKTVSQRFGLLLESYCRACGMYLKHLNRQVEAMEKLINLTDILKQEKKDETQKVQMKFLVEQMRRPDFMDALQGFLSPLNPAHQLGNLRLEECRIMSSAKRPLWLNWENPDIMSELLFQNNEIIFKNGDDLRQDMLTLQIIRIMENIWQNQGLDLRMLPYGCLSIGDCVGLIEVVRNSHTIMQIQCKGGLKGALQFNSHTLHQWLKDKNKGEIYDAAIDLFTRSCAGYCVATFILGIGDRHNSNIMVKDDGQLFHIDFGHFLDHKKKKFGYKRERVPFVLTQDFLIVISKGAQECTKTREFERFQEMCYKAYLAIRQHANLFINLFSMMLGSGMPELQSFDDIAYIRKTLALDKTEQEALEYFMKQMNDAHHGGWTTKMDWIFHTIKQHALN
Chain of PI3 kinase alpha (P27986 whole entry partner): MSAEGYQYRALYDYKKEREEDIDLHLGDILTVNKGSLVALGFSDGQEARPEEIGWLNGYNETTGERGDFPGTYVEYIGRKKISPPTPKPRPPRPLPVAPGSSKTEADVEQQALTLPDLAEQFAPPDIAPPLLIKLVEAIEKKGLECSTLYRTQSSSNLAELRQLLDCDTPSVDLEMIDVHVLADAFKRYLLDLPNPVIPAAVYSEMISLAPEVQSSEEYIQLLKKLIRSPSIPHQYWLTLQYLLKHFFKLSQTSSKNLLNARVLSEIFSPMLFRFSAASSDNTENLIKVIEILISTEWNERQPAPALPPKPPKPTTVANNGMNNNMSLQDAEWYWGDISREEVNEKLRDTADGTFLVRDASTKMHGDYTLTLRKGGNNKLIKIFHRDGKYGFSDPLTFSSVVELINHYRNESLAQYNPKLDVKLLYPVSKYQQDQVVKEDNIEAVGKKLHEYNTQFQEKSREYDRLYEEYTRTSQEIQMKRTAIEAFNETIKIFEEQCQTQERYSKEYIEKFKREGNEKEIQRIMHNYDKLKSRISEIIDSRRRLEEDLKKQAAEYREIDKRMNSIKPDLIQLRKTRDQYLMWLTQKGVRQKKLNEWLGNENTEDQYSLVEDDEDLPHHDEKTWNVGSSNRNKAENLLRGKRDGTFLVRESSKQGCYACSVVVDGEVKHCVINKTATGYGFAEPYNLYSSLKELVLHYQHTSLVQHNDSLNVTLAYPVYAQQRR
Procedure, shortened: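 Compound in DMSO was mixed with 10 nM PI3 kinase and 5 μg/mL phosphatidylinositol, and the reaction was started with 2 μM ATP. It ran to about 50% ATP depletion and was stopped with KinaseGlo.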

[4] = ovarian cancer cell line A2780, Biological Method 4

EC50 ([2]; ovarian cancer cell line A2780)	IC50 ([3]; Biological Method 1)	IC50 [3]	EC50 [2, 4]	Compound	further results
< 1000 nM	–	–	–	Nc1ncc(-c2cc(N3CCOCC3)nc(N3CCOCC3)n2)c(C(F)(F)F)n1 [Compound 85]	EC50 ([1]; A2780 cells): < 1000 nM
< 10000 nM	–	< 1000 nM	–	Nc1ncc(-c2cc(NC3CCCCC3)nc(N3CCOCC3)n2)cn1 [Compound 405]	–
–	< 1000 nM	–	< 25000 nM	Nc1ccc(-c2cc(Nc3cc(Cl)ccn3)nc(N3CCOCC3)n2)cn1 [Compound 349]	–
–	< 1000 nM	–	< 10000 nM	CN(c1cc(-c2ccc(N)nc2)nc(N2CCOCC2)n1)C1CCOCC1 [Compound 368]	–
< 25000 nM	–	< 1000 nM	–	Nc1ncc(-c2cc(NCC3CCCCC3)nc(N3CCOCC3)n2)cn1 [Compound 406]	–
< 10000 nM	–	< 1000 nM	–	CN1CCC(Oc2cc(-c3cnc(N)nc3)nc(N3CCOCC3)n2)CC1 [Compound 514]	–
< 1000 nM	–	< 1000 nM	–	Nc1ncc(-c2cc(OC3CCOCC3)nc(N3CCOCC3)n2)cn1 [Compound 515]	–
< 10000 nM	–	< 1000 nM	–	COC(=O)N1CCC[C@H](Oc2cc(-c3cnc(N)cc3C(F)(F)F)nc(N3CCOCC3)n2)C1 [Compound 454]	–
–	< 1000 nM	–	< 10000 nM	Nc1ccc(-c2cc(-c3cn[nH]c3)nc(N3CCOCC3)n2)cn1 [Compound 248]	–
< 1000 nM	–	< 1000 nM	–	Nc1ncc(-c2cc(Nc3ccc4c(c3)OCC(=O)N4)nc(N3CCOCC3)n2)cn1 [Compound 412]	–
–	< 1000 nM	–	< 10000 nM	Nc1ccc(-c2cc(Nc3ccc4c(c3)OCC(=O)N4)nc(N3CCOCC3)n2)cn1 [Compound 384]	–
< 10000 nM	–	< 1000 nM	–	COc1ncccc1Nc1cc(-c2ccc(N)nc2)nc(N2CCOCC2)n1 [Compound 448]	–
–	< 1000 nM	–	< 25000 nM	Nc1cc(C(F)(F)F)c(-c2cc(Nc3ccc(-c4nn[nH]n4)cc3)nc(N3CCOCC3)n2)cn1 [Compound 281]	–
–	< 1000 nM	–	< 10000 nM	Nc1cc(C(F)(F)F)c(-c2cc(Nc3ccc(OC4CCOCC4)nc3)nc(N3CCOCC3)n2)cn1 [Compound 267]	–
< 10000 nM	–	< 1000 nM	–	CN(C)c1cc(-c2cnc(N)nc2)nc(N2CCOCC2)n1 [Compound 400]	–
–	< 1000 nM	–	< 25000 nM	Nc1cc(C(F)(F)F)c(-c2cc(Nc3cccc(CN4CCOCC4)c3)nc(N3CCOCC3)n2)cn1 [Compound 314]	–
< 10000 nM	–	< 1000 nM	–	Cc1cc(Nc2cc(-c3cnc(N)[nH]c3=O)nc(N3CCOCC3)n2)ccn1 [Compound 451]	–
< 10000 nM	–	< 1000 nM	–	Nc1cc(C(F)(F)F)c(-c2cc(Nc3nc(-c4ccccc4)cs3)nc(N3CCOCC3)n2)cn1 [Compound 554]	–
–	< 1000 nM	–	< 10000 nM	N#Cc1cc(N)ncc1-c1cc(N2CCOC(c3ccccc3)C2)nc(N2CCOCC2)n1 (stereo not shown) [Compound 341]	–
< 25000 nM	–	< 1000 nM	–	Nc1ncc(-c2ccnc(N3CCOCC3)n2)c(N)n1 [Compound 463]	–
< 10000 nM	–	< 1000 nM	–	Nc1ccc(-c2cc(N3CCOCC3)nc(N3CCOCC3)n2)c(=O)[nH]1 [Compound 551]	–
–	< 1000 nM	–	< 10000 nM	Nc1ncc(-c2cc(NC(=O)[C@@H]3CCCO3)nc(N3CCOCC3)n2)cn1 [Compound 290]	–
–	< 1000 nM	–	< 25000 nM	Nc1ccc(-c2cc(Nc3cc(C(F)(F)F)ccn3)nc(N3CCOCC3)n2)cn1 [Compound 350]	–
< 10000 nM	–	< 1000 nM	–	COc1ccc(Nc2cc(-c3ccc(N)nc3)nc(N3CCOCC3)n2)cc1 [Compound 442]	–
–	< 1000 nM	–	< 10000 nM	Nc1ccc(-c2cc(Nc3cccc(S(N)(=O)=O)c3)nc(N3CCOCC3)n2)cn1 [Compound 362]	–

More lines, now with the values behind:

Compound	EC50 ([2]; ovarian cancer cell line A2780)	IC50 ([3]; Biological Method 1)	IC50 [3]	EC50 [2, 4]	further results
Nc1ncc(-c2cc(Nc3cnc4ccccc4c3)nc(N3CCOCC3)n2)c(N)n1 [Compound 147]	< 1000 nM	–	–	–	EC50 ([1]; A2780 cells): < 1000 nM
Nc1ncc(-c2cc(N3CCOCC3)nc(N3CCOCC3)n2)c(=O)[nH]1 [Compound 77]	< 1000 nM	–	–	–	EC50 ([1]; A2780 cells): < 1000 nM
Nc1ncc(-c2cc(N3CCOCC3)nc(N3CCOCC3)n2)cn1 [Compound 100]	< 1000 nM	–	–	–	EC50 ([1]; A2780 cells): < 1000 nM
Nc1ncc(-c2ccnc(N3CCOCC3)n2)cn1 [Compound 132]	< 10000 nM	–	–	–	EC50 ([1]; A2780 cells): < 1000 nM
N#Cc1cc(N)ncc1-c1cc(Nc2cnc3ccccc3c2)nc(N2CCOCC2)n1 [Compound 5]	< 1000 nM	–	–	–	EC50 ([1]; A2780 cells): < 10000 nM
Nc1ncc(-c2cc(Nc3cnc4ccccc4c3)nc(N3CCOCC3)n2)cn1 [Compound 1]	< 1000 nM	–	–	–	EC50 ([1]; A2780 cells): < 1000 nM
CN(C)CCOc1ccc(Nc2cc(-c3ccc(N)nc3)nc(N3CCOCC3)n2)cn1 [Compound 198]	–	< 1000 nM	–	–	EC50 ([1]; A2780, Biological Method 2): < 1000 nM
Nc1ncc(-c2cc(NC3CC3)nc(N3CCOCC3)n2)cn1 [Compound 402]	< 10000 nM	–	< 1000 nM	–	–
Nc1cc(C(F)(F)F)c(-c2cc(N3CCOC(c4ccccc4)C3)nc(N3CCOCC3)n2)cn1 (stereo not shown) [Compound 344]	–	< 1000 nM	–	< 10000 nM	–
Nc1ccc(-c2cc(-c3ccc(N)nc3)nc(N3CCOCC3)n2)cn1 [Compound 245]	–	< 1000 nM	–	< 10000 nM	–
Nc1ncc(-c2nc(N3CCOCC3)ncc2C(=O)N2CCNC(=O)C2)cn1 [Compound 427]	< 25000 nM	–	< 10000 nM	–	–
COc1ccc(Nc2cc(-c3cnc(N)nc3C)nc(N3CCOCC3)n2)cn1 [Compound 476]	< 10000 nM	–	< 1000 nM	–	–
Nc1ccc(-c2cc(Cl)nc(N3CCOCC3)n2)cn1 [Compound 369]	–	< 1000 nM	–	< 25000 nM	–
Nc1cc(C(F)(F)F)c(-c2cc(Oc3ccc4ncccc4c3)nc(N3CCOCC3)n2)cn1 [Compound 217]	–	< 1000 nM	–	< 10000 nM	–
Nc1ncc(-c2cc(Cl)nc(N3CCOCC3)n2)cn1 [Compound 523]	< 10000 nM	–	< 1000 nM	–	–
Nc1ccc(-c2cc(Nc3cnc4ccc(O)cc4c3)nc(N3CCOCC3)n2)cn1 [Compound 367]	–	< 1000 nM	–	< 10000 nM	–
COC(=O)N1CCC[C@@H](Oc2cc(-c3cnc(N)cc3C(F)(F)F)nc(N3CCOCC3)n2)C1 [Compound 452]	< 10000 nM	–	< 1000 nM	–	–

Compound	EC50 ([2]; ovarian cancer cell line A2780)	IC50 ([3]; Biological Method 1)	IC50 [3]	EC50 [2, 4]	further results
Cc1nc(N)ncc1-c1cc(Nc2ccc3c(c2)OCCO3)nc(N2CCOCC2)n1 [Compound 477]	< 10000 nM	–	< 1000 nM	–	–
Nc1ccc(-c2cc(Nc3ccc4nccnc4c3)nc(N3CCOCC3)n2)cn1 [Compound 377]	–	< 1000 nM	–	< 10000 nM	–
CC(=O)N1CCC[C@H](Oc2cc(-c3cnc(N)cc3C(F)(F)F)nc(N3CCOCC3)n2)C1 [Compound 455]	< 10000 nM	–	< 1000 nM	–	–
Nc1ccc(-c2cc(Nc3ccc4c(c3)OCCO4)nc(N3CCOCC3)n2)cn1 [Compound 386]	–	< 1000 nM	–	< 10000 nM	–
CC(C)(C)Nc1cc(-c2cnc(N)nc2)nc(N2CCOCC2)n1 [Compound 16]	< 1000 nM	–	< 1000 nM	–	–
Nc1ncc(-c2cc(O[C@H]3CCOC3)nc(N3CCOCC3)n2)c(C(F)(F)F)n1 [Compound 530]	< 10000 nM	–	< 1000 nM	–	–
Nc1ncc(-c2cc(O[C@@H]3CCOC3)nc(N3CCOCC3)n2)c(C(F)(F)F)n1 [Compound 531]	< 10000 nM	–	< 1000 nM	–	–
Nc1ccc(-c2cc(Nc3ccc(-c4cnco4)cc3)nc(N3CCOCC3)n2)cn1 [Compound 357]	–	< 1000 nM	–	< 25000 nM	–
CS(=O)(=O)Nc1cccc(Nc2cc(-c3ccc(N)nc3)nc(N3CCOCC3)n2)c1 [Compound 361]	–	< 1000 nM	–	< 10000 nM	–
CN1CCC(C(=O)Nc2cc(-c3cnc(N)nc3)nc(N3CCOCC3)n2)CC1 [Compound 289]	–	< 1000 nM	–	< 10000 nM	–
CN1CCN(C(=O)c2cnc(N3CCOCC3)nc2-c2cnc(N)nc2)CC1 [Compound 428]	< 25000 nM	–	< 10000 nM	–	–
Nc1ncc(-c2cc(N3CCCC3Cc3ccccc3)nc(N3CCOCC3)n2)cn1 (stereo not shown) [Compound 407]	< 10000 nM	–	< 1000 nM	–	–
Nc1ncc(-c2cc(O[C@H]3CCCN(C(=O)c4ccc(F)cc4)C3)nc(N3CCOCC3)n2)c(N)n1 [Compound 528]	< 10000 nM	–	< 1000 nM	–	–
Nc1ccc(-c2cc(Nc3cccnc3)nc(N3CCOCC3)n2)cn1 [Compound 378]	–	< 1000 nM	–	< 10000 nM	–
Nc1cc(C(F)(F)F)c(-c2cc(N3CCOC(C(=O)O)C3)nc(N3CCOCC3)n2)cn1 (stereo not shown) [Compound 333]	–	< 1000 nM	–	< 25000 nM	–
Nc1ncc(-c2cc(Nc3ccc4[nH]cnc4c3)nc(N3CCOCC3)n2)cn1 [Compound 521]	< 10000 nM	–	< 1000 nM	–	–
Nc1ccc(-c2cc(Nc3ccc4ccccc4n3)nc(N3CCOCC3)n2)cn1 [Compound 438]	< 10000 nM	–	< 1000 nM	–	–
